Assays:
Type in all cases: biochemical
[1] = molecular target: T1, MAGL (Homo sapiens, UniProt Q99685); experiment: In vitro competitive activity-based protein profiling (FP-Rh or HT-01 probe, gel-based); parameters: IC50 MGLL PC3 (Human, μM) / IC50 MGLL PFC (Human, μM): scale not given here; details: for % Inh MGLL PFC (Human, μM): prefrontal cortex (PFC) proteome; for % Inh MGLL PFC (Human, μM) / % Inh MGLL PC3 (Human, μM): concentration not given (μM)
T1 construct: Proteomes (human prefrontal cortex or cell membrane fractions); from tissue
T1 sequence (Q99685 1-303): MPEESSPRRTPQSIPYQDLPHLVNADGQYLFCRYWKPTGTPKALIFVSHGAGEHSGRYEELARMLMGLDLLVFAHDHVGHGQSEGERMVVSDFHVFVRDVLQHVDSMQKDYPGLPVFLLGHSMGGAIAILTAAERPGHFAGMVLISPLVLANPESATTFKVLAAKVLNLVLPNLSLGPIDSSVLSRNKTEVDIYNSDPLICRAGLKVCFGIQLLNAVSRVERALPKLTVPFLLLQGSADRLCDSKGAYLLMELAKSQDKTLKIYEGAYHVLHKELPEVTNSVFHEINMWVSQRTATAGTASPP
How it was run: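 Human prefrontal cortex or cell membrane proteomes (1.0 mg/mL total protein) were preincubated with varying inhibitor concentrations for 30 min at 37° C. FP-Rh or HT-01 probe (50 μM DMSO stock) was then added for 30 min at room temperature, and samples were quenched in SDS loading buffer and resolved by SDS-PAGE.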

[2] = molecular target: T2, MGLL (Mus musculus, UniProt O35678); experiment: In vitro competitive activity-based protein profiling, mouse brain proteome (MGLL); details: concentration not given (μM)
T2 construct: Brain; from tissue; host or cells: mouse brain proteome
T2 sequence (O35678 1-303): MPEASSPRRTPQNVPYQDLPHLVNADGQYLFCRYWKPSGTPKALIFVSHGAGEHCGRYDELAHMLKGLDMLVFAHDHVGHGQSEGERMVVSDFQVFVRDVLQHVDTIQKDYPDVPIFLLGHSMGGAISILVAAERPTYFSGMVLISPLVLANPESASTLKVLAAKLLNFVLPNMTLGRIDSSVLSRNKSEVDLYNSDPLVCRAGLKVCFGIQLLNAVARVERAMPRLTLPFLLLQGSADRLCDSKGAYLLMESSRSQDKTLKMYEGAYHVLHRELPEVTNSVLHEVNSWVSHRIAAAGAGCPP

[3] = molecular target: T3, ABHD6 (Mus musculus, UniProt Q8R2Y0); experiment: In vitro competitive activity-based protein profiling, mouse brain proteome (ABHD6); details: mouse brain proteome; concentration not given (μM)
T3 construct: Brain; from tissue; host or cells: mouse brain proteome
T3 sequence (Q8R2Y0 1-336): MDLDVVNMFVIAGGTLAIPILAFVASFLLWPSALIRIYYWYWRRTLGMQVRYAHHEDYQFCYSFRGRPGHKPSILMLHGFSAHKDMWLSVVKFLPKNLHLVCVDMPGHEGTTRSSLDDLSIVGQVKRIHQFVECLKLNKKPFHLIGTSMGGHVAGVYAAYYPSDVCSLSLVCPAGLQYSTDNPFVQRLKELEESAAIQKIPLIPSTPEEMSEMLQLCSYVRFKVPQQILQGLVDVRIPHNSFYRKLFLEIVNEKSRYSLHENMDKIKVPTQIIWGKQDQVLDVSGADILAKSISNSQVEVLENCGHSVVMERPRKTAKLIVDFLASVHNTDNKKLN
Procedure: [The source words this procedure for another target and reports this target under the same test.] In Vitro Competitive Activity-Based Protein Profiling.
Proteomes (human prefrontal cortex or cell membrane fractions) (50 μL, 1.0 mg/mL total protein concentration) were preincubated with varying concentrations of inhibitors at 37° C. After 30 min, FP-Rh or HT-01 (1.0 μL, 50 μM in DMSO) was added and the mixture was incubated for another 30 min at room temperature. Reactions were quenched with SDS loading buffer (15 μL-4×) and run on SDS-PAGE.

Row | Compound | % Inh MGLL PFC (Human, μM) [1] | % Inh MGLL Brain (Mouse, μM) [2] | % Inh ABHD6 Brain (Mouse, μM) [3] | IC50 MGLL PC3 (Human, μM) ([1]; PC3 cell proteome) | % Inh MGLL PC3 (Human, μM) ([1]; PC3 cell proteome) | IC50 ([1]; PC3 cell proteome, read-out: IC50 MGLL PC3 (Human)) [nM]
1 | CC1(OCc2cc(N3CCC(C(=O)O)CC3)cc(C(F)(F)F)c2)CCN(C(=O)OC(C(F)(F)F)C(F)(F)F)CC1 [Example 227, l-(3-(((1-(((1,1,1,3,3,3-Hexafluoropropan-2-yl)oxy)carbonyl)-4-melhylpiperidin-4-yl)oxy)methyl)-5-(trifluoromethyl)phenyl) piperidine-4-carboxylic acid] | ### (### is ≥75%) | ### (### is ≥75%) | ## (## is between 25 and 75%) |  |  | 
2 | O=C(O)C1CCN(Cc2ccc(CN3CCC4(CC3)CCN(C(=O)OC(C(F)(F)F)C(F)(F)F)C4)cc2C(F)(F)F)CC1 [Example 225, l-(4-((2-(((1,1,1,3,3,3-Hexafluoropropan-2-yl)oxy)carbonyl)-2,8-diazaspiro[4.5]decan-8-yl)methyl)-2-(trifluoromethyl)benzyl) piperidine-4-carboxylic acid] | ## (## is between 25 and 75%) | # (# is ≤25%) | ## (## is between 25 and 75%) |  |  | 
3 | CC1(N(CC(=O)O)Cc2ccc(C(F)(F)F)cc2N2CCOCC2)CCN(C(=O)OC(C(F)(F)F)C(F)(F)F)CC1 [Example 124, N-(1-(((1,1,1,3,3,3-Hexafluoropropan-2-yl)oxy)cart>onyl)-4-methylpiperidin-4-yl)-N-(2-morpholino-4-(trifluoromethyl)benzyl) glycine] | ### (### is ≥75%) | ### (### is ≥75%) | # (# is ≤25%) |  |  | 
4 | CN(Cc1ccc(C(F)(F)F)cc1OCC(=O)O)C1(C)CCN(C(=O)OC(C(F)(F)F)C(F)(F)F)CC1 [Example 136, 2-(2-(((1-(((1,1,1,3,3,3-Hexafluoropropan-2-yl)oxy)carbonyl)-4-methylpiperidin-4-yl)(methyl)amino)methyl)-5-(trifluoromethyl)phenoxy)acetic acid] |  | ### (### is ≥75%) | # (# is ≤25%) |  | ### (### is ≥75%) | 
5 | O=C(O)C1CCN(c2cc(F)ccc2CN2CC3(CCN(C(=O)OC(C(F)(F)F)C(F)(F)F)CC3)C2)CC1 [Example 123, l-(5-Fluoro-2-((7-(((1,1,1,3,3,3-hexafluoropropan-2-yl)oxy)carbonyl)-2,7-diazaspiro[3,5]nonan-2-yl)methyl)phenyl)piperidine-4-carboxylic acid] | ### (### is ≥75%) | ### (### is ≥75%) | # (# is ≤25%) |  |  | 
6 | O=C(O)C1CCN(c2cc(S(F)(F)(F)(F)F)ccc2CN2CCC3(CC2)CCN(C(=O)OC(C(F)(F)F)C(F)(F)F)C3)CC1 [Example 222, l-(2-((2-(((1,1,1,3,3,3-Hexafluoropropan-2-yl)oxy)carbonyl)-2,8-diazaspiro[4.5]decan-8-yl)methyl)-5-(pentafluoro-16-sulfaneyl)phenyl)piperidine-4-carboxylic acid] | ### (### is ≥75%) | ### (### is ≥75%) | ## (## is between 25 and 75%) |  |  | 

Next, values leading:

Row | % Inh MGLL PFC (Human, μM) [1] | % Inh MGLL Brain (Mouse, μM) [2] | % Inh ABHD6 Brain (Mouse, μM) [3] | IC50 MGLL PC3 (Human, μM) ([1]; PC3 cell proteome) | % Inh MGLL PC3 (Human, μM) ([1]; PC3 cell proteome) | IC50 ([1]; PC3 cell proteome, read-out: IC50 MGLL PC3 (Human)) [nM] | Compound
7 |  | ### (### is ≥75%) | # (# is ≤25%) | * * * | ### (### is ≥75%) |  | CN(Cc1cccc(Cl)c1C1(C(=O)O)CCCC1)C1(C)CCN(C(=O)OC(C(F)(F)F)C(F)(F)F)CC1 [Example 9, 1-(2-Chloro-6-(((1-(((1,1,1,3,3,3-hexafluoropropan-2-yl)oxy)carbonyl)-4-methylpiperidin-4-yl)(methyl)amino)methyl)phenyl)cyclopentane-1-carboxylic acid]
8 | # (# is ≤25%) | ## (## is between 25 and 75%) | # (# is ≤25%) |  |  |  | O=C(O)C1CCN(Cc2cc(CN3CCC4(CC3)CCN(C(=O)OC(C(F)(F)F)C(F)(F)F)C4)ccc2Cl)CC1 [Example 224, l-(2-Chloro-5-((2-(((1,1,1,3,3,3-hexafluoropropan-2-yl)oxy)carbonyl)-2,8-diazaspiro[4.5]decan-8-yl)methyl)benzyl)piperidine-4-carboxylic acid]
9 | ### (### is ≥75%) | ### (### is ≥75%) | ## (## is between 25 and 75%) |  |  |  | O=C(O)C1COCCN1c1cc(CN2CC3(CCN(C(=O)OC(C(F)(F)F)C(F)(F)F)CC3)C2)cc(C(F)(F)F)c1 (stereo not drawn) [Example 103]
10 | ### (### is ≥75%) | ### (### is ≥75%) | # (# is ≤25%) |  |  |  | O=C(O)CN1CC2CC1CN2c1cc(CN2CCCC23CCN(C(=O)OC(C(F)(F)F)C(F)(F)F)CC3)cc(C(F)(F)F)c1 (stereo not drawn) [Example 128, 2-(5-{3-[(8-{[(1,1,1,3,3,3-Hexafluoropropan-2-yl)oxy]carbonyl}-1,8-diazaspiro[4.5]decan-1-yl)methyl]-5-(trifluoromethyl)phenyl}-2,5-diazabicyclo[2.2.1]heptan-2-yl)acetic acid]
11 |  | ### (### is ≥75%) | # (# is ≤25%) |  | ### (### is ≥75%) |  | CN(Cc1ccc(C(F)(F)F)cc1C1(C(=O)O)CCCC1)C1(C)CCN(C(=O)OC(C(F)(F)F)C(F)(F)F)CC1 [Example 133, l-(2-{[(1-{[(1,1,1,3,3,3-Hexafluoropropan-2-yl)oxy]carbonyl}-4-methylpiperidin-4-yl)(methyl)amino]methyl}-5-(trifluoromethyl)phenyl)cyclop entane-1-carboxylic acid]
12 | ### (### is ≥75%) | ### (### is ≥75%) | ### (### is ≥75%) | * * * |  |  | O=C(O)c1cc(CN2CC3(CCN(C(=O)OC(C(F)(F)F)C(F)(F)F)CC3)C2)ccc1C(F)(F)F [Example 21, 5-((7-(((1,1,1,3,3,3-Hexafluoropropan-2-yl)oxy)carbonyl)-2,7-diazaspiro[3.5]nonan-2-yl)methyl)-2-(trifluoromethyl)benzoic acid]
13 |  | ### (### is ≥75%) | # (# is ≤25%) |  | ### (### is ≥75%) | < 100 | O=C(O)[C@@H]1CCCN1C1CCN(c2cc(C(F)(F)F)ccc2CN2CCCC23CCN(C(=O)OC(C(F)(F)F)C(F)(F)F)CC3)CC1 [Example 164, (1-(2-((8-(((1,1,1,3,3,3-Hexafluoropropan-2-yl)oxy)carbonyl)-1,8-diazaspiro[4.5]decan-1-yl)methyl)-5-(trifluoromethyl)phenyl)piperidin-4-yl)-L-proline]
14 | ### (### is ≥75%) | ### (### is ≥75%) | ### (### is ≥75%) |  |  |  | CC1(C(=O)O)CCN(c2cc(CN3CC4(CCN(C(=O)OC(C(F)(F)F)C(F)(F)F)CC4)C3)cc(C(F)(F)F)c2)C1 (stereo not drawn) [Example 121, l-(3-((7-(((1,1,1,3,3,3-Hexafluoropropan-2-yl)oxy)carbonyl)-2,7-diazaspiro[3.5]nonan-2-yl)methyl)-5-(trifluoromethyl)phenyl)-3-methylpyrrolidine-3-carboxylic acid]
15 |  | ### (### is ≥75%) | # (# is ≤25%) |  | ### (### is ≥75%) |  | O=C(OC(C(F)(F)F)C(F)(F)F)N1CCC2(CCCN2Cc2cc(Cl)cc(C3(C(=O)O)CCCC3)c2)CC1 [Example 134, l-{3-Chloro-5-[(8-{[(1,1,1,3,3,3-hexafluoropropan-2-yl)oxy]carbonyl}-1,8-diazaspiro[4.5]decan-1-yl)methyl]phenyl}cyclopentane-1-carboxylic acid]
